One assay relates to A549. Briefly: Cell proliferation assay (Prolif.), IC50 scored relative to DMSO control. Format: cell-based. Particulars: A549 cells; for Rel. Prolif., A549: proliferation response relative to DMSO control, scored low/medium/high. The protocol: Cell Proliferation Assay (Prolif.) Guo et al. (2018) Nat. Chem. 11:254-63. Specific cell lines are indicated in each assay and cultured in complete growth media. Activity is scored according to the IC50 values relative to DMSO control. “Low” indicates an IC50 greater than 600 nM, “Medium” indicates an IC50 between 300 nM and 600 nM “High” indicates an IC50 less than 300 nM. “Rel.Uptake” refers to uptake activity characterization relative to a single concentration assay. “Low” indicates a response greater than 0.6 times the activity relative to DMSO, “Medium” indicates a response between 0.6 and 0.3 times the activity relative to DMSO, “High” indicates a response less than 0.3 times the activity relative to DMSO.

A further assay relates to NCI-H929. The assay can be described thus: Cell proliferation, single concentration assay (Rel. Prolif.), response relative to DMSO. In kind it is cell-based. The conditions noted are these: NCI-H929 cells, activity relative to DMSO.
The subject of the next assay is H929. Briefly: Cell proliferation assay (Prolif.), H929. In kind it is cell-based. The conditions noted are these: H929 cells; scored relative to DMSO control.
Assay [1] is described as follows: Nucleoside uptake, single concentration assay (Rel.Uptake); cell line indicated in each table. In kind it is cell-based. Particulars: nucleoside uptake, single concentration assay, 293T cells, response relative to DMSO. The protocol:
(§1) Nucleoside Uptake Assay (uptake). Nuceloside uptake assays were performed with using 3H-Thymidine as described in Guo et al. (2018) Nat. Chem. 11:254-63. Specific cell lines are indicated in each assay and cultured in complete growth media. Activity is scored according to the IC50 values relative to DMSO control. “Low” indicates an IC50 greater than 600 nM, “Medium” indicates an IC50 between 300 nM and 600 nM “High” indicates an IC50 less than 300 nM. “Rel.Uptake” refers to uptake activity characterization relative to a single concentration assay. “Low” indicates a response greater than 0.6 times the activity relative to DMSO, “Medium” indicates a response between 0.6 and 0.3 times the activity relative to DMSO, “High” indicates a response less than 0.3 times the activity relative to DMSO.

Another assay has as its system 293T. The assay can be described thus: Nucleoside uptake assay (3H-Thymidine), IC50 scored relative to DMSO control. In kind it is cell-based. Particulars: 293T cells. The protocol:
as §1

Assay [2] concerns Rat Renal Ischemia-Reperfusion model. Briefly: Rat Renal Ischemia-Reperfusion model. In kind it is in vivo, Sprague Dawley Rats. The conditions noted are these: treated 30 min prior to right nephrectomy and left renal clamping; 24 hours of reperfusion; 1593 at 12 or 4 mg/kg, 1594 at 4 mg/kg. Here is the method:
Briefly, Sprague Dawley Rats were treated test compound 30 min prior to a right nephrectomy and with underwent clamping of the left renal clamping for 15 mins. After 24 hours of reperfusion, blood was collected to measure biomarkers for kidney damage and the kidney was removed for histology. […] SHAM indicates an animal group with right nephrectomy without ischemic injury. VE indicates vehicle. DPA indicates dipyridamole administered in a dosage of 10 mg/kg. Compound 1593 was administered at a high dosage (12 mg/kg) or a low dosage (4 mg/kg). Compound 1594 was administered at 4 mg/kg.

SMILES strings stand for the structures. Numbered stars: 1 amine (or outer) side, 2 acyl side, 3 side chain; on linkers, the order of the positions; unused ones are H or OH. Square brackets hold non-standard residues; d marks the D form. Side chains are listed from the residue outwards. Peptide text beside a SMILES is read from it. * marks the point of attachment. X1 = COc1ccc(CC[C@@H](N[*:1])c2cccc(OCC(=O)[*:2])c2)cc1OC; X2 = CN(CCC=CC(=O)OCC(C)(C)C(=O)C(=O)[*:2])[*:1]; NMeY = CN[C@@H](Cc1ccc(O)cc1)C(=O)O; Pip = O=C(O)[C@@H]1CCCCN1; Morpholide = C1CN(*)CCO1; CO = O=C([*:1])[*:2]; Sar = CNCC(=O)O

On to `CCCC[C@H]1C(=O)N[C@@H](Cc2ccc3ccccc3c2)C(=O)N(C)[C@@H](COC(C)(C)C)C(=O)NCC(=O)N(C)CCC=CC(=O)OCC(C)(C)C(=O)C(=O)N2CCCC[C@H]2C(=O)O[C@H](CCc2ccc(OC)c(OC)c2)c2cc(F)cc(c2)OCC(=O)N1C` [Compound 574], for which, in the assay with A549, the “Rel. Prolif., A549” value is recorded as “low”.
In the case of `CCCC[C@H]1C(=O)N[C@@H](Cc2ccc3ccccc3c2)C(=O)N(C)[C@@H](COC(C)(C)C)C(=O)NCC(=O)N(C)CCC=CC(=O)OCC(C)(C)C(=O)C(=O)N2CCCC[C@H]2C(=O)O[C@H](CCc2ccc(OC)c(OC)c2)c2ccc(F)c(c2)OCC(=O)N1C` [Compound 576], the “Prolif, A549” value with A549 (IC50 class relative to DMSO control) is recorded as “me- dium”. Besides, the “Rel. Prolif., A549” value in the assay with A549 is “medium”.
In the case of `COc1ccc(CC[C@H]2OC(=O)[C@@H]3CCCCN3C(=O)C(=O)C(C)(C)COC(=O)C=CCCN(C)C(=O)[C@@H](Cc3ccccc3)NC(=O)CN(C)C(=O)[C@@H](Cc3ccccc3)NC(=O)[C@H](Cc3ccc(OC(=O)N4CCOCC4)cc3)N(C)C(=O)COc3cccc2c3F)cc1OC` [Compound 867], the “Rel. Prolif., NCI-H929” value in the assay with NCI-H929 is on record as “low”.
For `COc1ccc(CC[C@H]2OC(=O)[C@@H]3CCCCN3C(=O)C(=O)C(C)(C)COC(=O)C=CCCN(C)C(=O)[C@@H](Cc3ccccc3)NC(=O)CN(C)C(=O)[C@@H](Cc3ccccc3)NC(=O)[C@H](Cc3ccc(OC(=O)N4CCOCC4)cc3)N(C)C(=O)COc3cc(F)cc2c3)cc1OC` [Compound 868], in the assay with NCI-H929, the “Rel. Prolif., NCI-H929” value was “low”.
Same read-out and setting: the result for `COc1ccc(CC[C@H]2OC(=O)[C@@H]3CCCCN3C(=O)C(=O)C(C)(C)COC(=O)C=CCCN(C)C(=O)[C@@H](Cc3ccccc3)NC(=O)CN(C)C(=O)[C@@H](Cc3ccccc3)NC(=O)[C@H](Cc3ccc(OC(=O)N4CCOCC4)cc3)N(C)C(=O)CCC(=O)Nc3cccc2c3)cc1OC` [Compound 869] reads “low”.
For `COc1ccc(CC[C@H]2NC(=O)[C@@H]3CCCCN3C(=O)C(=O)C(C)(C)COC(=O)C=CCCN(C)C(=O)[C@@H](Cc3ccccc3)NC(=O)CN(C)C(=O)[C@@H](Cc3ccccc3)NC(=O)[C@H](Cc3ccc(OC(=O)N4CCOCC4)cc3)N(C)C(=O)COc3cccc2c3)cc1OC` [Compound 877] (cyclo([NMeY]([CO-Morpholide])[dF][Sar][dF][X2][Pip][X1])), the “Prolif. H929” value with H929 was “low”.
Turning to `COc1ccc(CC[C@H]2NC(=O)[C@@H]3CCCCN3C(=O)C(=O)C(C)(C)COC(=O)C=CCCN(C)C(=O)[C@H](CC(C)C)N(C)C(=O)[C@H]3CCCN3C(=O)[C@H](Cc3ccccc3)N(C)C(=O)C(c3ccccc3)NC(=O)CCC(=O)Nc3cccc2c3)cc1OC` (stereo partly drawn) [Compound 1557], in assay [1], the “Rel. Uptake, 293T” value is given as “high”. In addition, the “Uptake, 293T” value in the assay on 293T (3H-Thymidine uptake, IC50 class relative to DMSO control) is given as “high”.
In the case of `COc1ccc(CC[C@H]2OC(=O)[C@@H]3CCCCN3C(=O)C(=O)C(C)(C)COC(=O)C=CCCN(C)C(=O)[C@H](CC(C)C)N(C)C(=O)[C@H]3CCCN3C(=O)[C@H](Cc3ccc(C(=O)Nc4ccccc4)cc3)NC(=O)[C@H](c3ccccc3)NC(=O)CCC(=O)Nc3cccc2c3)cc1OC` [Compound 1559], the “Rel. Uptake, 293T” value in assay [1] was “medium”. In addition, the “Uptake, 293T” value in the assay on 293T (nucleoside uptake) is reported as “medium”.
Take `COc1ccc(CC[C@H]2OC(=O)[C@@H]3CCCCN3C(=O)C(=O)C(C)(C)COC(=O)/C=C/CCN(C)C(=O)[C@H](CC(C)C)N(C)C(=O)[C@H]3CCCN3C(=O)[C@H](Cc3ccc(OCC(=O)O)cc3)NC(=O)[C@H](c3ccccc3)NC(=O)CCC(=O)Nc3cccc2c3)cc1OC` [Compound 1593]: the “efficacy in Rat Renal Ischemia-Reperfusion model” value in assay [2] is reported as “efficacious”. In addition, in assay [1], the “Rel. Uptake, 293T” value is recorded as “High (“High” indicates a response less than 0.3 times the activity relative to DMSO)”.
Take `COc1ccc(CC[C@H]2OC(=O)[C@@H]3CCCCN3C(=O)C(=O)C(C)(C)COC(=O)/C=C/CCN(C)C(=O)[C@H](CC(C)C)N(C)C(=O)[C@H]3CCCN3C(=O)[C@H](Cc3ccccc3)NC(=O)[C@H](c3ccccc3)NC(=O)CCC(=O)Nc3cccc2c3)cc1OC` [Compound 1594]: the “efficacy in Rat Renal Ischemia-Reperfusion model” value in assay [2] is “efficacious”. Also, the “Rel. Uptake, 293T” value in assay [1] is given as “Low (“Low” indicates a response greater than 0.6 times the activity relative to DMSO)”.

Values taken from patent US20230000996A1, “RAPAFUCIN DERIVATIVE COMPOUNDS AND METHODS OF USE THEREOF” (The Johns Hopkins University, priority 2019, published 2023).
